Where two headings read alike, the source gives them in different places.
Biological target: pSTAT3 (Homo sapiens, UniProt P40763)
Assay: MSD-pSTAT-PBMC Assay (pSTAT3, IL-6 stimulated)
Type: cell-based
Text: Cryopreserved Peripheral Blood Mononuclear Cells (PBMC) are from AllCells. Recombinant Human IL-4 and IL-6 are from Peprotech. Mouse monoclonal anti-STAT3 antibody, rabbit monoclonal anti-pY705-STAT3 antibody, rabbit monoclonal Anti-pY641-STAT6 antibody, and lysis buffer are from Cell Signaling Technology (CST). Mouse monoclonal anti-STAT6 antibody is from BioLegend. Assay plates, blocker, and anti-rabbit secondary antibody are from Meso Scale Discovery (MSD).
Cryopreserved PBMCs were thawed out and allowed to recover overnight in IMDM+10% heat-inactivated FBS prior to plating 50,000 (STAT3) or 25,000 (STAT6) cells per well in 96-well U-bottom tissue culture plates. Cells were treated with compound for 3 hrs, then stimulated with 10 ng/mL IL-6 (STAT3) or 1 ng/mL IL-4 (STAT6) for 10 min. Cells were then spun down and washed with ice-cold PBS prior to lysing the cell pellet with 1× lysis buffer (CST) with 1× HALT protease and phosphatase inhibitor cocktail (Thermo). Lysates were transferred to and incubated overnight at 4° C. with shaking in QuickPlex 96-well high bind assay plates (MSD) pre-coated overnight with 30 μL per well of […] mouse monoclonal anti-STAT3 antibody (STAT3) or 2 μg/mL mouse monoclonal anti-STAT6 antibody (STAT6) in 1× PBS, and pre-blocked for 1 hour with 3% Blocker-A (MSD). Captured protein in the assay plates were then washed and probed with 25 μL per well of […] rabbit monoclonal anti-pY705-STAT3 antibody (STAT3) or […] rabbit monoclonal Anti-pY641-STAT6 antibody (STAT6) in 1% Blocker-A for 1 hour at room temperature with shaking, then washed and probed with 25 ul per well of 1 ug/ml Sulfo-TAG Labeled Goat Anti-Rabbit Antibody (MSD) in 1% Blocker-A for 1 hour at room temperature with shaking. Assay plates were then washed and 150 μL of 1× Read Buffer-T (MSD) was added to each well prior to reading on an SQ120 MSD Plate Reader. Assay signal from each sample was subtracted by the signal from unstimulated control wells and normalized to DMSO control wells. IC50 values were calculated using Graph Pad Prism Dose-Response Nonlinear Regression with variable slope. For both pSTAT3 and pSTAT6 A=≤100 nM; B=>100-1000 nM; C=>1000-3000 nM; and D=>3 μM.

[1] = compound 3 hrs, then 10 ng/mL IL-6 10 min, pY705-STAT3, read-out: pSTAT3 IC50
[2] = read-out: pSTAT3 IC50, compound 3 hrs, then 10 ng/mL IL-6 10 min, pY705-STAT3

Chain of pSTAT3 (P40763 whole entry): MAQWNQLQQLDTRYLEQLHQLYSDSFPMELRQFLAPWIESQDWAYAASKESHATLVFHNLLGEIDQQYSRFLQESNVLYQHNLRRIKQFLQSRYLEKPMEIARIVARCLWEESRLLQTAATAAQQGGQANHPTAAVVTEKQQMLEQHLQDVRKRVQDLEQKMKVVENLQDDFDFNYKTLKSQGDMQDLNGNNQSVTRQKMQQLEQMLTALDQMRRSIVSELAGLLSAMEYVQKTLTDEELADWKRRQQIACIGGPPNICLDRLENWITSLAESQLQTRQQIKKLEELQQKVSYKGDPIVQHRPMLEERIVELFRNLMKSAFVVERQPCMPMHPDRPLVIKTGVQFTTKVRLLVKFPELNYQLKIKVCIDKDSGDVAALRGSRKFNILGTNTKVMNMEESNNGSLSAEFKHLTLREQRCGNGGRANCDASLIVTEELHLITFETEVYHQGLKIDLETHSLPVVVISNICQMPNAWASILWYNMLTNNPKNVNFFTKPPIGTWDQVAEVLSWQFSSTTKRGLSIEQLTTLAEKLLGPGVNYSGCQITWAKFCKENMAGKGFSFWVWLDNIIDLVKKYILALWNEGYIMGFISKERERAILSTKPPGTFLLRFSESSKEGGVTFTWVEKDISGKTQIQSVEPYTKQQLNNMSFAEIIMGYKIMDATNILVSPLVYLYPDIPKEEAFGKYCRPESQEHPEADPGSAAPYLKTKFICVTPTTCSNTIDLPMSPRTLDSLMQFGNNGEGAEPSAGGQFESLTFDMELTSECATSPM

Row | SMILES | IC50 [1] | IC50 [2]
1 | CCCC(=O)SCCOP(=O)(OCCSC(=O)CCC)C(F)(F)c1ccc2sc(C(=O)N[C@H]3CCC[C@H]4CC[C@@H](C(=O)N5CC(c6cnccc6OCCOCCOc6ccc(C7CCC(=O)NC7=O)cc6)C5)N4C3=O)cc2c1 (stereo partly drawn) [Compound 12, S,S((((2-(((3S,6S,9aS)-3-(3-(4-(2-(2-(4-(2,6-dioxopiperidin-3-yl)phenoxy)ethoxy)ethoxy)pyridin-3-yl)azetidine-1-carbonyl)-5-oxooctahydro-1H-pyrrolo[1,2-a]azepin-6-yl)carbamoyl)benzo[b]thiophen-5-yl)difluoromethyl)phosphoryl)bis(oxy))bis(ethane-2,1-diyl)) dibutanethioate] | < 100 nM | –
2 | CCCOC(=O)[C@H](C)NP(=O)(Oc1ccccc1)[C@@H](F)c1ccc2sc(C(=O)N[C@H]3CCC[C@H]4CC[C@@H](C(=O)N5CC(c6cnccc6N6CCC(CCC#Cc7ccc8c(c7)n(C)c(=O)n8C7CCC(=O)NC7=O)CC6)C5)N4C3=O)cc2c1 (stereo partly drawn) [Compound 38, propyl (((1R)-(2-(((3S,6S,9aS)-3-(3-(4-(4-(4-(1-(2,6-dioxopiperidin-3-yl)-3-methyl-2-oxo-2,3-dihydro-1H-benzo[d]imidazol-5-yl)but-3-yn-1-yl)piperidin-1-yl)pyridin-3-yl)azetidine-1-carbonyl)-5-oxooctahydro-1H-pyrrolo[1,2-a]azepin-6-yl)carbamoyl)benzo[b]thiophen-5-yl)fluoromethyl)(phenoxy)phosphoryl)-L-alaninate] | – | < 100 nM
3 | CCCC(=O)SCCOP(=O)(OCCSC(=O)CCC)C(F)(F)c1ccc2sc(C(=O)N[C@H]3CCC[C@H]4CC[C@@H](C(=O)N5CC(c6cnccc6N6CCC(C(=O)N[C@H](C(=O)N7C[C@H](O)C[C@H]7C(=O)NCc7ccc(-c8scnc8C)cc7)C(C)(C)C)CC6)C5)N4C3=O)cc2c1 [Compound 7, S,S((((difluoro(2-(((3S,6S,9aS)-3-(3-(4-(4-(((S)-1-((2S,4R)-4-hydroxy-2-((4-(4-methylthiazol-5-yl)benzyl)carbamoyl)pyrrolidin-1-yl)-3,3-dimethyl-1-oxobutan-2-yl)carbamoyl)piperidin-1-yl)pyridin-3-yl)azetidine-1-carbonyl)-5-oxooctahydro-1H-pyrrolo[1,2-a]azepin-6-yl)carbamoyl)benzo[b]thiophen-5-yl)methyl)phosphoryl)bis(oxy))bis(ethane-2,1-diyl)) dibutanethioate] | – | 100 to 1000 nM
4 | CCCC(=O)SCCOP(=O)(OCCSC(=O)CCC)C(F)(F)c1ccc2sc(C(=O)N[C@H]3CCC[C@H]4CC[C@@H](C(=O)N5CC(c6cnccc6N6CCN(C(=O)COc7ccc(C8CCC(=O)NC8=O)cc7)CC6)C5)N4C3=O)cc2c1 (stereo partly drawn) [Compound 29, S,S(((((2-(((3S,6S,9aS)-3-(3-(4-(4-(2-(4-(2,6-dioxopiperidin-3-yl)phenoxy)acetyl)piperazin-1-yl)pyridin-3-yl)azetidine-1-carbonyl)-5-oxooctahydro-1H-pyrrolo[1,2-a]azepin-6-yl)carbamoyl)benzo[b]thiophen-5-yl)difluoromethyl)phosphoryl)bis(oxy))bis(ethane-2,1-diyl)) dibutanethioate] | – | < 100 nM
5 | CCCC(=O)SCCOP(=O)(OCCSC(=O)CCC)C(F)(F)c1ccc2sc(C(=O)N[C@H]3CCC[C@H]4CC[C@@H](C(=O)N5CC(c6cnccc6N(C)CCOc6ccc(C7CCC(=O)NC7=O)cc6)C5)N4C3=O)cc2c1 (stereo partly drawn) [Compound 20, S,S(((((2-(((3S,6S,9aS)-3-(3-(4-((2-(4-(2,6-dioxopiperidin-3-yl)phenoxy)ethyl)(methyl)amino)pyridin-3-yl)azetidine-1-carbonyl)-5-oxooctahydro-1H-pyrrolo[1,2-a]azepin-6-yl)carbamoyl)benzo[b]thiophen-5-yl)difluoromethyl)phosphoryl)bis(oxy))bis(ethane-2,1-diyl)) dibutanethioate] | < 100 nM | –
